Experimental data reported in patent US20030143729A1 (Synaptic Pharmaceutical Corporation, priority 1992, published 2003).
Where two headings read alike, the source gives them in different places.

Key:
TAUT = molecular target: T1, TAUT (Rattus norvegicus, UniProt P31643); test: [3H]taurine uptake, full competition curves at cloned TAUT (transient transfection, COS cells); format: cell-based
T1 sequence (P31643 1-621): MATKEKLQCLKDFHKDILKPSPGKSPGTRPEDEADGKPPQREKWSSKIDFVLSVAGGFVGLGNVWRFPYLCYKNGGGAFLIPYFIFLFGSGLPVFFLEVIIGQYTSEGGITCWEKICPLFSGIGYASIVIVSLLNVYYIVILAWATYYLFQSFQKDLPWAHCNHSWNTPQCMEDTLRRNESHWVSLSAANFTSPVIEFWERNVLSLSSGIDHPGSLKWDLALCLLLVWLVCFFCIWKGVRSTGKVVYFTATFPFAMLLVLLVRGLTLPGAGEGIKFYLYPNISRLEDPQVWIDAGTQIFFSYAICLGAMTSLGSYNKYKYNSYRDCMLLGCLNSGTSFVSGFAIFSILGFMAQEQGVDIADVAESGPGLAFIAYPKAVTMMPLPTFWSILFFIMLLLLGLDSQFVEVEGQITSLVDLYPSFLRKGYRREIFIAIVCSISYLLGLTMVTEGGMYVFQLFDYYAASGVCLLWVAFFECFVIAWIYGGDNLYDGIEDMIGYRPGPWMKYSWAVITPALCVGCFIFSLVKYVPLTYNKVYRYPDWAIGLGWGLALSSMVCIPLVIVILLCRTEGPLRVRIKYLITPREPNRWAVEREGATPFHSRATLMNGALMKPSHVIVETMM

GAT-2 = molecular target: T2, GAT-2 (Rattus norvegicus, UniProt P31646); test: [3H]GABA uptake by COS cells transfected with GAT-2 (rB14b); format: cell-based
T2 construct: randomly primed GAT-2 full-length or GAT-3 truncated or full-length cDNA clones; expressed in transfected cells; host or cells: COS cells, transient, plasmid pEVJB-rB14b
T2 sequence (P31646 1-602): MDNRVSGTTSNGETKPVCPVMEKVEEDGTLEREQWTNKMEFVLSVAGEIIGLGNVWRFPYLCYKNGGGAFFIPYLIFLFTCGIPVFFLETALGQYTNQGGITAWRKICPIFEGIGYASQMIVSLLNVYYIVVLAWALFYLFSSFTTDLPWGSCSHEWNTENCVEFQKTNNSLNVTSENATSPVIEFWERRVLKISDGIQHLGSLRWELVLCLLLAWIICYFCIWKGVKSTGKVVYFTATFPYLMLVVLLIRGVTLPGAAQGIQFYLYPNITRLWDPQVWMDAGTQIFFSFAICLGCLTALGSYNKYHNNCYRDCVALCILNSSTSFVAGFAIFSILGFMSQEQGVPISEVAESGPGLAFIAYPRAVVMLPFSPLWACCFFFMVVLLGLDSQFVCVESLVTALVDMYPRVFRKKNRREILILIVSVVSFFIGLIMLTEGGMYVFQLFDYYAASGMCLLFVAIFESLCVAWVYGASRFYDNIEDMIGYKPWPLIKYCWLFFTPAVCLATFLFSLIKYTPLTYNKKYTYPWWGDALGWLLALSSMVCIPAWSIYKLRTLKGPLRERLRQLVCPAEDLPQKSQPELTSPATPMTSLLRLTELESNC

O-2A/Type 2 astrocytes = test: [3H]GABA uptake in O-2A/Type 2 astrocyte cultures; format: cell-based, rat
Procedure: Preparation of primary rat astrocyte cell cultures: Primary glial cultures were established from newborn Sprague-Dawley rat brains. Brains minus cerebella were removed aseptically and carefully dissected free of meninges. […] The cells were dissociated by trituration through a serological pipette. Separate procedures were then used for the preparation of Type-1 and O-2A/Type-2 astrocyte cultures, as will now be described.
For the preparation of Type-1 astrocyte cultures, cells were plated onto uncoated 75 cm^2 flasks at low density (1 brain per 10 flasks, or approximately 8×10^4 cells/cm^2). The medium was changed the following day and twice a week thereafter. […] Cultures highly enriched in O-2A/Type-2 cells were prepared from mixed astrocyte cultures which consisted of a monolayer of Type 1 cells upon which rested large numbers of O-2A/Type 2 cells. […] The same brain cell suspensions as described above were plated at high density (1 brain per 75 cm^2 flask, or approximately 8×10^5 cells/cm^2) into flasks coated with poly-D-lysine (10 μg/ml). After 24 hours the medium was replaced and the cultures were subsequently fed twice a week. […] Complete medium was added to the flasks and the cell suspension was removed gently, care being taken to not disrupt the underlying Type 1 astrocyte monolayer. The cells were pelleted at low speed, resuspended in complete medium, and added to 24-well plates coated with poly-D-lysine (10 μg/ml). […] No attempt was made to distinguish or separate O-2A precursors from the more differentiated Type 2 astrocytes.

hBGT-1 = molecular target: T3, hBGT-1 (Homo sapiens, UniProt P48065); test: [3H]GABA uptake, full competition curves at cloned hBGT-1 (transient transfection, COS cells); format: cell-based; set-up: expressed in transfected cells; host or cells: COS cells, transient (DEAE-dextran)
T3 sequence (P48065 1-614): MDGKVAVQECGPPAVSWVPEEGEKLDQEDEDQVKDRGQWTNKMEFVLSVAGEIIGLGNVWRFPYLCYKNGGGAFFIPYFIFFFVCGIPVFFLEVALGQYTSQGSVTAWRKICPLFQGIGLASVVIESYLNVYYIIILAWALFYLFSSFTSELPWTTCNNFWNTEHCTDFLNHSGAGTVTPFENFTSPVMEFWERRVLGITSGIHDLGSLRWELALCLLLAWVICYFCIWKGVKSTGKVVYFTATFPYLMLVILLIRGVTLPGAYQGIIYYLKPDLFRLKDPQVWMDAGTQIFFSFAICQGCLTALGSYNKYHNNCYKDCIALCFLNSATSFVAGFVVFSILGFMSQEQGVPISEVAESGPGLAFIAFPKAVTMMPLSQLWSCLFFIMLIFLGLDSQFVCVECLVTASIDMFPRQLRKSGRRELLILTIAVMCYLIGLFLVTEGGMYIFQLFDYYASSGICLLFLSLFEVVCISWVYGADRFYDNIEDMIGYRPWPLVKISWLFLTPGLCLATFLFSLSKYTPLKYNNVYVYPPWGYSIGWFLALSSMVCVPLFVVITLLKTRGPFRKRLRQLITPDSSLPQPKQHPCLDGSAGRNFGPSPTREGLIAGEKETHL

neuronal cultures = test: [3H]GABA uptake in primary neuronal cell cultures; format: cell-based, rat
Procedure: Brains were removed aseptically from E17 embryonic Sprague-Dawley rats brains, carefully dissected free of meninges, and kept on ice. A single-cell suspension was made by mincing the brains, followed by trituration through a serological pipette. […] On day three cytosine β-D-arabinofuransoside (3 μM) was added to control the proliferation of non-neuronal cells. The cultures were used for transport assay approximately one week after plating.

[1] = full competition curves, 50 nM [3H]taurine, read-out: IC50 for inhibition of [3H]taurine uptake, TAUT (Table 8)
[2] = COS, read-out: % Inhibition of [3H]GABA uptake, GAT-2
[3] = Rattus norvegicus, Astrocyte, 3 h, read-out: IC50 for inhibition of [3H]GABA uptake, O-2A/Type 2 astrocytes, absence of NNC-711
[4] = Rattus norvegicus, Astrocyte, 3 h, read-out: IC50 for inhibition of [3H]GABA uptake, O-2A/Type 2 astrocytes with NNC-711, in the presence of 10 μM NNC-711
[5] = Rattus norvegicus, Neuron, read-out: IC50 for inhibition of [3H]GABA uptake, Neurons with NNC-711, in the presence of 10 μM NNC-711
[6] = Rattus norvegicus, Neuron, read-out: IC50 for inhibition of [3H]GABA uptake, Neurons, absence of NNC-711
[7] = read-out: IC50 for inhibition of [3H]GABA uptake, Neurons, absence of NNC-711
[8] = read-out: IC50 for inhibition of [3H]GABA uptake, O-2A/Type 2 astrocytes with NNC-711, in the presence of 10 μM NNC-711
[9] = read-out: IC50 for inhibition of [3H]GABA uptake, O-2A/Type 2 astrocytes, absence of NNC-711
[10] = read-out: IC50 for inhibition of [3H]GABA uptake, hBGT-1 (Table 8), full competition curves, 50 nM [3H]GABA
[11] = read-out: IC50 for inhibition of [3H]GABA uptake, Neurons with NNC-711, in the presence of 10 μM NNC-711

| Compound | IC50 (TAUT; [1]) [µM] | IC50 (hBGT-1) [µM] | IC50 (O-2A/Type 2 astrocytes; [3]) [µM] | IC50 (O-2A/Type 2 astrocytes; [4]) [µM] | IC50 (neuronal cultures; [5]) [µM] | IC50 (neuronal cultures; [6]) [µM] | IC50 (neuronal cultures; [7]) [µM] | inhibition at 100 µM (GAT-2; [2]) [%] | IC50 (O-2A/Type 2 astrocytes; [8]) [µM] | IC50 (O-2A/Type 2 astrocytes; [9]) [µM] | IC50 (hBGT-1; [10]) [µM] | IC50 (neuronal cultures; [11]) [µM] | other results |
| --- | --- | --- | --- | --- | --- | --- | --- | --- | --- | --- | --- | --- | --- |
| NCCCC(=O)O [GABA, gamma-aminobutyric acid] | 720 ± 170 |  |  |  |  |  |  |  |  |  |  |  | VMAX of GABA transport, COS/rB14b (GAT-2) (GAT-2; various concentrations of [3H]GABA, 30 seconds): 2.5±1.2 nmoles/mg protein |
| O=C(O)C1=CCCNC1 [guvacine] | 1030 | 1420 |  |  |  |  |  |  |  |  |  |  | IC50 (O-2A/Type 2 astrocytes; Rattus norvegicus, Astrocyte, 3 h, read-out: IC50 for inhibition of [3H]GABA uptake, O-2A/Type 2 astrocytes): 8 ± 0.9 µM; IC50 (neuronal cultures; Rattus norvegicus, Neuron, read-out: IC50 for inhibition of [3H]GABA uptake, Neurons): 14 ± 2 µM; inhibition at 10 µM (GAT-2; [2]): 13 ± 1% |
| NCCS(=O)(=O)O [taurine, 2-aminoethanesulfonic acid] | 48 ± 11 | 13200 | 13000 |  |  |  |  |  |  |  |  |  |  |
| N[C@@H]1CCC[C@H](C(=O)O)C1 (relative stereo) [ACHC, cis-3-aminocyclohexanecarboxylic acid] |  | 1070 | ~35 | 2360 | 1950 | ~75 | 77 ± 8 | 3 ± 3 |  |  |  |  | IC50 (O-2A/Type 2 astrocytes; Rattus norvegicus, Astrocyte, read-out: IC50 for GABA transport, O-2A/Type 2 astrocytes, in the presence of 10 μM NNC-711): ~2000 µM; IC50 (neuronal cultures; Rattus norvegicus, read-out: IC50, NNC-711-resistant GABA transport, neuronal cultures, in the presence of 10 μM NNC-711): ~2000 µM; IC50 (TAUT): 9230 µM |
| NCCS(=O)O [hypotaurine] | 47 | 536 ± 41 | 620 | 29 ± 15 | 25 ± 2 | 742 ± 200 |  |  |  |  |  |  |  |
| NCC[C@H](N)C(=O)O [L-DABA, L-(2,4)diaminobutyric acid] |  | 528 ± 62 | 74 | 91 ± 30 | 861 ± 225 | 165 ± 20 |  | 43 ± 8 |  |  |  |  | IC50 (TAUT): 41800 µM |
| hydroxynipecotic acid [OH-nipecotic] | 4810 |  |  |  |  |  | 22 ± 2 |  | 197 ± 20 | 17 ± 3 | 3840 | 304 ± 100 | % Inhibition of [3H]GABA uptake, GAT-2 (GAT-2; inhibitor 10 μM, 50 nM [3H]GABA, 10 minutes, 37° C.): 9 ± 7 (3) % |
| N=C(N)NCCS(=O)(=O)O [GES, guanidinoethanesulfonic acid] | 129 |  |  |  |  |  | 2110 |  | 603 ± 300 | 1560 | 4800 | 508 ± 60 |  |
| O=C(O)C1=CCCN(CCON=C(c2ccccc2)c2ccccc2)C1 [NNC-711] | 207 |  |  |  |  |  | 0.28 ± 0.1 |  |  | 0.07 | 3570 |  | specific [3H]GABA uptake that persisted, O-2A/Type 2 astrocytes (O-2A/Type 2 astrocytes; NNC-711 at 10 μM): 26±4%; specific [3H]GABA uptake that persisted, neuronal cultures (neuronal cultures; NNC-711 at 10 μM): 31±1%; IC50 (neuronal cultures; read-out: IC50 for [3H]GABA uptake, neuronal cultures): ~0.3 µM |
| NCCC(=O)O [β-alanine] | 176 | 1100 | 2030 | ~25 | ~50 | 4060 |  | 86 ± 1 | 24 ± 8 |  |  | 48 ± 10 | IC50 (O-2A/Type 2 astrocytes; Rattus norvegicus, Astrocyte, read-out: IC50 for GABA transport, O-2A/Type 2 astrocytes): ~2000 µM; IC50 (neuronal cultures; Rattus norvegicus, read-out: IC50 for [3H]GABA uptake, neuronal cultures, absence of NNC-711): ~4000 µM |
